In patent US20100137449A1, “SUBSTITUTED 1,3-CYCLOPENTADIONE MULTI-TARGET PROTEIN KINASE MODULATORS OF CANCER, ANGIOGENESIS AND THE INFLAMMATORY PATHWAYS ASSOCIATED THEREWITH” (METAPROTEOMICS, LLC, priority 2007, published 2010):

Columns and labels:
Assay in all cases: KinaseProfiler Assay
Rsk1(h) = Rsk1(h) (Homo sapiens, UniProt Q15418)
DCAMKL2(h) = target: T1, DCAMKL2(h) (Homo sapiens, UniProt Q8N568)
T1 sequence (Q8N568 1-766): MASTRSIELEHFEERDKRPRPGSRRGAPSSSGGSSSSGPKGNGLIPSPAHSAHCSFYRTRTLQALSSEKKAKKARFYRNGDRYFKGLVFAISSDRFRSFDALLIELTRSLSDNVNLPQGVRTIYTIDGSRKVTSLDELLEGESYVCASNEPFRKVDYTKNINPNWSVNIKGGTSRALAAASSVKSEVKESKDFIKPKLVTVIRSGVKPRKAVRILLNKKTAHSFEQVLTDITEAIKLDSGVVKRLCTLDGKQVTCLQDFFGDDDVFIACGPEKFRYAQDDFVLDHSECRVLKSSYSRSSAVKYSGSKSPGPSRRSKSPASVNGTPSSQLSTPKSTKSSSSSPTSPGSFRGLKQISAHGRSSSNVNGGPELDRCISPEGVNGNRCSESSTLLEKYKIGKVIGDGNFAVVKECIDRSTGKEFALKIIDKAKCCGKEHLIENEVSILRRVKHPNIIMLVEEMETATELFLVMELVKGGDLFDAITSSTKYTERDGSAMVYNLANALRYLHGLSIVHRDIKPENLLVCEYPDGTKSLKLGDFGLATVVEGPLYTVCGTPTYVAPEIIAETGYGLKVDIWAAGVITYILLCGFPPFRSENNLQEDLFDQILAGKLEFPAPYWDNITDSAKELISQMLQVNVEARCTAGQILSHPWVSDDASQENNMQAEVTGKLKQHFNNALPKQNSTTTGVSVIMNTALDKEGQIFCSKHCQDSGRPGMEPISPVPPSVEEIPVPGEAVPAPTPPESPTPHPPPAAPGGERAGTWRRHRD

EphB1(h) = target: T2, EphB1(h) (Homo sapiens, UniProt P54762)
T2 sequence (P54762 18-984): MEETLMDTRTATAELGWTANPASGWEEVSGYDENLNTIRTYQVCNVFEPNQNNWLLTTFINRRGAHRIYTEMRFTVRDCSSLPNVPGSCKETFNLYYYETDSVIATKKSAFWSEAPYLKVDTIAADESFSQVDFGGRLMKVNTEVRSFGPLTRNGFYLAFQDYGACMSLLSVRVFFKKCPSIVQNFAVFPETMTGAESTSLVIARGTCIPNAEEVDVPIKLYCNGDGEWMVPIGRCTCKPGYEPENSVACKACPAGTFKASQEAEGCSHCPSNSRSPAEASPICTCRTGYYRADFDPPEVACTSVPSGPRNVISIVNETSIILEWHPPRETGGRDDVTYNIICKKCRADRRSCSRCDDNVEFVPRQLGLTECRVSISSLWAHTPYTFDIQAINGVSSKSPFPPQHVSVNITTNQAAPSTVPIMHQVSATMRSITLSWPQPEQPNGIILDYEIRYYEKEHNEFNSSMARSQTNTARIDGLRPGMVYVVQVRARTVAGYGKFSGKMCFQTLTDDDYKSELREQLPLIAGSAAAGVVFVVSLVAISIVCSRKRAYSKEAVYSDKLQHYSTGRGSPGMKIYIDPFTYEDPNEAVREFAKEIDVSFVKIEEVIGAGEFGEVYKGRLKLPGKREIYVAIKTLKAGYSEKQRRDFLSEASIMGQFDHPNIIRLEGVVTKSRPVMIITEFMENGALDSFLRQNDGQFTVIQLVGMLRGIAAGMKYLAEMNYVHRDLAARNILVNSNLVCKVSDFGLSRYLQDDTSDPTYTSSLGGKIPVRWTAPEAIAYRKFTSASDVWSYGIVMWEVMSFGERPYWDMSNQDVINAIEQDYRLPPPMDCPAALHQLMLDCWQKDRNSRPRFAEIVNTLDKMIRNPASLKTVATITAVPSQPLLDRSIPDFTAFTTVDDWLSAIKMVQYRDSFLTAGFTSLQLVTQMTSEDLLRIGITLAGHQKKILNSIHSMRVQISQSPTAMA

BrSK1(h) = target: T3, BrSK1(h) (Homo sapiens, UniProt Q8TDC3)
T3 sequence (Q8TDC3 1-778): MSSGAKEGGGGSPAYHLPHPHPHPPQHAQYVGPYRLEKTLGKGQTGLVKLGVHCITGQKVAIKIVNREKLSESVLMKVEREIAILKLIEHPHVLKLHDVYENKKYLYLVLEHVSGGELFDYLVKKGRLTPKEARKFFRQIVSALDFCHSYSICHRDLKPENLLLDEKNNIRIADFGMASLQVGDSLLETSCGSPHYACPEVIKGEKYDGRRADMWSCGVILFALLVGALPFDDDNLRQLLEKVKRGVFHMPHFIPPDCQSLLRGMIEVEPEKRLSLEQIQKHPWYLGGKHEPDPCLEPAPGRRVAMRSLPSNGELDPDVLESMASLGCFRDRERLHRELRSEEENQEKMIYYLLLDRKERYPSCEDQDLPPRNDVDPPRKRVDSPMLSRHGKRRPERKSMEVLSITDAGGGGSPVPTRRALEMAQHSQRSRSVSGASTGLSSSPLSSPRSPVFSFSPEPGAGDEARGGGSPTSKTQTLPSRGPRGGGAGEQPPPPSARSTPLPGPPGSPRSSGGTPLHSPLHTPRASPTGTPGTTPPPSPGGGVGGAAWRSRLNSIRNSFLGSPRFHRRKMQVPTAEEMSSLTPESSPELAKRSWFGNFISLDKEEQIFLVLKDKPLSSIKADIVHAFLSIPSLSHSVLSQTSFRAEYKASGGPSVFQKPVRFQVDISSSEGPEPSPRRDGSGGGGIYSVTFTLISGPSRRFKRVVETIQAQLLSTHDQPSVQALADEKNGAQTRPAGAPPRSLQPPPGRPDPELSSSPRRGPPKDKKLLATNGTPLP

Sequence of Rsk1(h) (Q15418 whole entry): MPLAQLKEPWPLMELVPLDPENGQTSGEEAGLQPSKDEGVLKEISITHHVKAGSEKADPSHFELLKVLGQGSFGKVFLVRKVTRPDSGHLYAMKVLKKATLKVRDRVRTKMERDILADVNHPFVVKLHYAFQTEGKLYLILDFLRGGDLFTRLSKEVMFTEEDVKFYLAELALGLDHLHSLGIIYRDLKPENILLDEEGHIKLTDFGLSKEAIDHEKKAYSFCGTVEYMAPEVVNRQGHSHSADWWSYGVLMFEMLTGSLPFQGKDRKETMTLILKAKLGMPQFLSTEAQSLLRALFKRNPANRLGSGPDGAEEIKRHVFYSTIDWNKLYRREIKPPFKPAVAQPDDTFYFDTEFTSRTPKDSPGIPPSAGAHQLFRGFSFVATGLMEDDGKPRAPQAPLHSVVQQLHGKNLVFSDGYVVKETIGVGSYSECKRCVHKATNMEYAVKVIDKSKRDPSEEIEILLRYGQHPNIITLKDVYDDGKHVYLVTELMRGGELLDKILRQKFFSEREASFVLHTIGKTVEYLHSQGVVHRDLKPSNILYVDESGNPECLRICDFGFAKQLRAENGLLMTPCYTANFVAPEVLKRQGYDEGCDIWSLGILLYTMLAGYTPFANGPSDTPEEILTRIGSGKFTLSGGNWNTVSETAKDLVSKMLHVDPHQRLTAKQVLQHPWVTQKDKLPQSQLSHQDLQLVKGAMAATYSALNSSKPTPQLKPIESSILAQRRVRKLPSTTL

`CC(C)CCC(=O)[C@]1(O)C(O)=C(C(=O)C(C)C)C(=O)[C@H]1CCC(C)C` [TH2, tetrahydroiso-cohumulone] was tested, and the kinase inhibition (Rsk1(h); 1 μg/ml) was 97% of control, the kinase inhibition (Rsk1(h); 5 μg/ml) was 95% of control and the kinase inhibition (Rsk1(h); 25 μg/ml) was 65% of control. For the same molecule, the kinase inhibition (Rsk1(h); 50 μg/ml) was 53% of control, the kinase inhibition (Rsk1(h); 100 μg/ml) was 32% of control and the kinase inhibition (DCAMKL2(h); 1 μg/ml) was 96% of control. The kinase inhibition (DCAMKL2(h); 5 μg/ml) was 100% of control, the kinase inhibition (DCAMKL2(h); 25 μg/ml) was 110% of control and the kinase inhibition (DCAMKL2(h); 50 μg/ml) was 96% of control. The kinase inhibition (DCAMKL2(h); 100 μg/ml) was 86% of control, the kinase inhibition (EphB1(h); 1 μg/ml) was 127% of control and the kinase inhibition (EphB1(h); 5 μg/ml) was 82% of control. The kinase inhibition (EphB1(h); 25 μg/ml) was 144% of control, the kinase inhibition (EphB1(h); 50 μg/ml) was 195% of control and the kinase inhibition (EphB1(h); 100 μg/ml) was 105% of control. The kinase inhibition (BrSK1(h); 1 μg/ml) was 104% of control, the kinase inhibition (BrSK1(h); 5 μg/ml) was 101% of control and the kinase inhibition (BrSK1(h); 25 μg/ml) was 82% of control. The kinase inhibition (BrSK1(h); 50 μg/ml) was 66% of control and the kinase inhibition (BrSK1(h); 100 μg/ml) was 50% of control.
